The test has as its system wild type HBV genomes population. The test can be described thus: Phenotypic drug susceptibility assay: Huh7 cells transfected with type-I vector clones, Southern blot of intracellular replicative HBV DNA intermediates. As to conditions: Hepatitis B virus, Huh-7, read-out: IC50 (intracellular replicative HBV DNA intermediates).

By IC50 is commonly meant the concentration at which inhibition is half-maximal.

Take `Nc1ccn([C@@H]2CS[C@H](CO)O2)c(=O)n1` [lamivudine, β-L-(−)-2′,3′-dideoxy-3′-thiacytidine]: the IC50 was < 100 nM.

(Values after patent publication US20060240405A1, “Method for assaying replication of hbv and testing ... drugs” (priority 2002, published 2006).)
